The record followed here is article PMC12281475, “Mediator Kinase Inhibitor Selectivity and Activity in Colorectal Cancer” (ACS Chemical Biology, 2025).

The structures appear in SMILES notation.

Data set [1] concerns MED14 phosphorylation in COLO205 cells. Nature of the data set: CDK-phospho-motif immunoprecipitation and MED14 immunoblot, COLO205. Format: cell-based, human. Particulars: COLO205, 350 nM, 6 h. The text has this:
In the absence of phospho-specific antibodies targeting these sites, we employed immunoprecipitation using CDK-phospho-motif antibodies followed by immunoblotting with a MED14 antibody to validate the observed reduction in MED14 phosphorylation. […] In contrast, phosphorylation of MED13 and MED26 was reduced in only 2 of 5 and 5 of 10 CDK-phospho-motif peptides, respectively (Figure E and Supporting Figure S2C). This heterogeneous phosphorylation pattern complicates validation using motif-based immunoprecipitation, as reductions at specific phospho-sites may be obscured by unchanged CDK-motif phosphorylation at other sites. […]
Cell monolayers were washed with PBS twice and lysed using a modified RIPA buffer, mRIPA (50 mM TRIS-HCl pH 7.4, 1% NP-40 substitute, 0.5% NaDOC, 150 mM NaCl, 1 mM EDTA, 0.02% SDS and 1:100 dilution of proteinase and phosphatase inhibitor cocktail, (#5872, Cell Signaling Technology) with overnight freezing at -80 °C and sonication of the cell pellet. Lysates were clarified by centrifugation and supernatants collected and protein concentration determined by a bicinchoninic acid (BCA) assay. […]
= biological repeats; * = phosphorylated residue). (B) STAT1SER727 phosphorylation in COLO205 or SW620 cell lysates detected using two different phospho-STAT1SER727-specific antibodies following treatment with 350 nM CCT251545 for 6 hours. […]
A general note: Immunoblotting shows a protein as a band on a membrane.

Data set [2] has as its system SW620 human solid tumor xenografts. Nature of the data set: Antitumor activity in SW620 tumor xenografts (parent and knockout clones). Particulars: 42 mg/kg p.o. qd 5/7 days, 14-20 days.
Experimental: Three separate clones were run for each knockdown condition (n = 7 control or treated mice per group for the parent and each individual clone). Tumors and plasma were collected 6 h after the final dose. For all graphs an ordinary one-way ANOVA with Dunnett’s correction was run to determine significance. […] Each point represents data from a knockout clone.
The establishment, treatment, pharmacokinetic analyses and processing of tumor samples from solid tumor xenografts was performed as described previously previously. , All procedures were performed in accordance with published NCRI guidelines and UK Government Home Office regulations.
The establishment, treatment, pharmacokinetic analysis and processing of tissue
samples from human tumour xenografts was performed as described previously.3,4 All
procedures were performed in accordance with published guidelines and UK
Government Home Office regulations.5 Female athymic nude mice Crl:NU-Foxn1nu
(Charles River Laboratories, US) were acclimatized for 1 week prior to use. Five million
SW620 human colorectal carcinoma cells were injected s.c. in the right flanks of 6–8
weeks old female NCr athymic mice under isofluorothane anesthesia. Therapy was
initiated when established tumours reached a mean volume of 60 mm (day 7). Animals
were randomly assigned into cohorts. Control mice received vehicle (0.5% Methocel,
at 42 mg/kg p.o qd for 5/7 days with a 2-day break after 1 week's dosing.
was prepared 24 h prior to administration to mice by weighing into a glass 30 mL
universal tube, and Methocel solution (0.5% Methocel, 0.25% Tween 20 in sterile
phosphate buffered saline) added to provide a final concentration of 3 mg/mL.
preparation was agitated at room temperature by magnetic stirrer to bring it into a fine
suspension before use. Animals were dosed orally by gavage every 24 h at 0.1 mL
per 10 g body weight. Tumours were measured three times weekly by Vernier calipers and body weights recorded. At the end of the study, day 3 for pharmacodynamic
biomarker analysis and day 14 for anti-tumour therapy experiments, animals were
culled 6 h after the final dose. Heparinized blood was collected by cardiac puncture,
spun, and the plasma snap frozen in liquid nitrogen for analysis of compound
exposure. Tumours were excised, weighed and samples snap frozen for compound
Data set [3] in a line: Plasma total concentration of compound (LC-MS/MS). Format: in vivo, mice. To be noted: 6 h after final dose. As to the method: for 20 mins at room temperature. […]
and body weights recorded. […]
quantification and pharmacodynamic biomarker analyses. All samples were stored […]
Plasma homogenates were extracted with 3 equivalent volumes of methanol containing olomoucine (500 nM) as an internal standard. Extracts were quantified for […]
ranging from 2 nM to 50 000 nM) with 4 quality control samples (25, 250,2500, and 7500 nM in duplicate) included at the beginning and the end of the analytical run.
Plasma homogenates were measured by LC−MS/MS on a Waters TQS following a separation on a Waters Acquity BEH C18 column (50 mm × 2.1 mm; 1.7 μm) with conditions of 0.1% formic acid (mobile phase A) and methanol (mobile phase B). The column was equilibrated at initial condition of 95% A and 5% B, linear gradient over 3 min to 100% B, held over 1 min, followed by linear gradient back to 5% B over 0.1 min, […]
mode by multiple reaction monitoring, 412.17 > 376.40at 33 eV for compound 109, […]
Phospho-proteome analyses
Adherent COLO205 cells were washed with PBS and cells lysed using urea lysis buffer (9 M Urea, 20 mM HEPES, pH 8.0, 1 mM beta-glycerophosphate, 1 mM sodium vanadate, 2.5 mM sodium pyrophosphate) and stored at -80 °C prior to analysis. The supernatants were reduced with 100 mM DTT for 30 minutes at 55 °C, followed by alkylation with 50 mM iodoacetimide for 15 minutes at ambient temperature in the dark. […]

In the case of `Cn1cc(-c2ccc(-c3cncc(Cl)c3N3CCC4(CCNC4=O)CC3)cc2)cn1` [CCT251545], the “MED14 phosphorylation (CDK-phospho-motif immunoprecipitation, MED14 immunoblot)” value in data set [1] is “decrease was evident”.
In the case of `Cn1ncc2cc(-c3cnc(N)c(Cl)c3N3CCC4(CCNC4=O)CC3)ccc21` [CCT251921], the “antitumor activity, treated/control (T/C)” value came out at 113 ± 10% in data set [2] (CDK8/19 double knockout SW620 xenografts, p < 0.005); 59 ± 6% in data set [2] (CDK8 knockout SW620 xenografts, ± s.e.m.); 66 ± 3% in data set [2] (CDK19 knockout SW620 xenografts); 63% in data set [2] (parental SW620 xenografts). Moreover, the “plasma total concentrations, parent versus knockout clones” value in data set [3] (14-20 days, 42 mg/kg p.o qd 5/7 days, exception CDK8-KO-cl2 (p < 0.05)) is recorded as “no significant differences”. Moreover, the “plasma levels in parent versus individual knockout clones” value in data set [3] (3 days, 42 mg/kg p.o. qd) is on record as “no significant difference”.
